From PubChem BioAssay (NCI)
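Compound exposure: 48 hours, 5 concentrations, 96-well plates. The concentration for full growth arrest is given as TGI.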

Experiments:
Test in all cases: NCI tumour cell line growth inhibition, 48 h
EKVX NSCLC = tested on: EKVX NSCLC
MALME-3M melanoma = tested on: MALME-3M melanoma
OVCAR-5 ovarian = tested on: OVCAR-5 ovarian
DLD-1 colon = tested on: DLD-1 colon
HT29 colon = tested on: HT29 colon
M19-MEL melanoma = tested on: M19-MEL melanoma
SR leukemia = tested on: SR leukemia
HOP-18 NSCLC = tested on: HOP-18 NSCLC
SK-MEL-28 melanoma = tested on: SK-MEL-28 melanoma
A549 NSCLC = tested on: A549 NSCLC
HCT-15 colon = tested on: HCT-15 colon
HCT-116 colon = tested on: HCT-116 colon
HOP-62 NSCLC = tested on: HOP-62 NSCLC
XF 498 CNS = tested on: XF 498 CNS
SF-295 CNS = tested on: SF-295 CNS
SW-620 colon = tested on: SW-620 colon
UO-31 renal = tested on: UO-31 renal
MOLT-4 leukemia = tested on: MOLT-4 leukemia
OVCAR-8 ovarian = tested on: OVCAR-8 ovarian
NCI-H522 lung = tested on: NCI-H522 lung
M14 melanoma = tested on: M14 melanoma
NCI-H23 lung = tested on: NCI-H23 lung
SNB-78 CNS = tested on: SNB-78 CNS
COLO 205 colon = tested on: COLO 205 colon
NCI-H226 lung = tested on: NCI-H226 lung
SF-268 CNS = tested on: SF-268 CNS
786-0 renal = tested on: 786-0 renal
K-562 leukemia = tested on: K-562 leukemia
DMS 273 small cell lung = tested on: DMS 273 small cell lung
RPMI-8226 leukemia = tested on: RPMI-8226 leukemia
OVCAR-4 ovarian = tested on: OVCAR-4 ovarian
SK-MEL-2 melanoma = tested on: SK-MEL-2 melanoma
SN12C renal = tested on: SN12C renal
SNB-75 CNS = tested on: SNB-75 CNS
CAKI-1 renal = tested on: CAKI-1 renal
KM12 colon = tested on: KM12 colon
HCC-2998 colon = tested on: HCC-2998 colon
CCRF-CEM leukemia = tested on: CCRF-CEM leukemia
HL-60(TB) leukemia = tested on: HL-60(TB) leukemia
UACC-257 melanoma = tested on: UACC-257 melanoma
SK-MEL-5 melanoma = tested on: SK-MEL-5 melanoma
NCI-H460 lung = tested on: NCI-H460 lung
DMS 114 small cell lung = tested on: DMS 114 small cell lung
OVCAR-3 ovarian = tested on: OVCAR-3 ovarian
LOX IMVI melanoma = tested on: LOX IMVI melanoma
ACHN renal = tested on: ACHN renal
SF-539 CNS = tested on: SF-539 CNS
TK-10 renal = tested on: TK-10 renal
SNB-19 CNS = tested on: SNB-19 CNS
RXF-631 renal = tested on: RXF-631 renal
HOP-92 NSCLC = tested on: HOP-92 NSCLC
PC-3 prostate = tested on: PC-3 prostate
DU-145 prostate = tested on: DU-145 prostate
A498 renal = tested on: A498 renal
T-47D breast = tested on: T-47D breast
HS 578T breast = tested on: HS 578T breast
BT-549 breast = tested on: BT-549 breast
MDA-MB-435 = tested on: MDA-MB-435
KM20L2 colon = tested on: KM20L2 colon
U251 CNS = tested on: U251 CNS
MCF7 breast = tested on: MCF7 breast
SK-OV-3 ovarian = tested on: SK-OV-3 ovarian
IGROV1 ovarian = tested on: IGROV1 ovarian
MDA-MB-231 breast = tested on: MDA-MB-231 breast
MDA-N = tested on: MDA-N
LXFL 529 NSCLC = tested on: LXFL 529 NSCLC
NCI/ADR-RES ovarian = tested on: NCI/ADR-RES ovarian
RXF 393 renal = tested on: RXF 393 renal
UACC-62 melanoma = tested on: UACC-62 melanoma

## CC(=O)Nc1ccc(C(=O)N2N=C(C)/C(=C/c3ccccc3O)C2=O)cc1
EKVX NSCLC
  TGI: > 100 µM
MALME-3M melanoma
  TGI: > 100 µM
OVCAR-5 ovarian
  TGI: > 100 µM
DLD-1 colon
  TGI: > 100 µM
HT29 colon
  TGI: > 100 µM
M19-MEL melanoma
  TGI: > 100 µM
SR leukemia
  TGI: > 100 µM
HOP-18 NSCLC
  TGI: > 100 µM
SK-MEL-28 melanoma
  TGI: > 100 µM
A549 NSCLC
  TGI: > 100 µM
HCT-15 colon
  TGI: > 100 µM
HCT-116 colon
  TGI: > 100 µM
HOP-62 NSCLC
  TGI: > 100 µM
XF 498 CNS
  TGI: > 100 µM
SF-295 CNS
  TGI: > 100 µM
SW-620 colon
  TGI: > 100 µM
UO-31 renal
  TGI: > 100 µM
MOLT-4 leukemia
  TGI: > 100 µM
OVCAR-8 ovarian
  TGI: > 100 µM
NCI-H522 lung
  TGI: > 100 µM
M14 melanoma
  TGI: > 100 µM
NCI-H23 lung
  TGI: > 100 µM
SNB-78 CNS
  TGI: > 100 µM
COLO 205 colon
  TGI: > 100 µM
NCI-H226 lung
  TGI: > 100 µM
SF-268 CNS
  TGI: > 100 µM
786-0 renal
  TGI: > 100 µM
K-562 leukemia
  TGI: > 100 µM
DMS 273 small cell lung
  TGI: > 100 µM
RPMI-8226 leukemia
  TGI: > 100 µM
OVCAR-4 ovarian
  TGI: > 100 µM
SK-MEL-2 melanoma
  TGI: > 100 µM
SN12C renal
  TGI: > 100 µM
SNB-75 CNS
  TGI: > 100 µM
CAKI-1 renal
  TGI: > 100 µM
KM12 colon
  TGI: > 100 µM
HCC-2998 colon
  TGI: > 100 µM
CCRF-CEM leukemia
  TGI: > 100 µM
HL-60(TB) leukemia
  TGI: > 100 µM
UACC-257 melanoma
  TGI: > 100 µM
SK-MEL-5 melanoma
  TGI: > 100 µM
NCI-H460 lung
  TGI: > 100 µM
DMS 114 small cell lung
  TGI: > 100 µM
OVCAR-3 ovarian
  TGI: > 100 µM
LOX IMVI melanoma
  TGI: > 100 µM
ACHN renal
  TGI: > 100 µM
SF-539 CNS
  TGI: > 100 µM
TK-10 renal
  TGI: > 100 µM
SNB-19 CNS
  TGI: > 100 µM

## O=C(/C=C/c1ccc(OCC(=O)N2CCN(c3ccccc3)CC2)cc1)c1ccc(Cl)cc1
EKVX NSCLC
  TGI: > 83.9 µM
MALME-3M melanoma
  TGI: > 100 µM
RXF-631 renal
  TGI: > 100 µM
OVCAR-5 ovarian
  TGI: > 100 µM
HOP-92 NSCLC
  TGI: 47.8 µM
DLD-1 colon
  TGI: > 100 µM
HT29 colon
  TGI: > 100 µM
M19-MEL melanoma
  TGI: > 100 µM
SR leukemia
  TGI: > 100 µM
PC-3 prostate
  TGI: > 100 µM
HOP-18 NSCLC
  TGI: > 100 µM
SK-MEL-28 melanoma
  TGI: > 100 µM
DU-145 prostate
  TGI: > 100 µM
A498 renal
  TGI: 60.3 µM
A549 NSCLC
  TGI: > 100 µM
HCT-15 colon
  TGI: > 100 µM
T-47D breast
  TGI: > 100 µM
HS 578T breast
  TGI: 62.3 µM
HCT-116 colon
  TGI: > 100 µM
HOP-62 NSCLC
  TGI: 55.3 µM
SF-295 CNS
  TGI: 54.7 µM
BT-549 breast
  TGI: > 85.6 µM
MDA-MB-435
  TGI: > 100 µM
SW-620 colon
  TGI: > 100 µM
KM20L2 colon
  TGI: > 100 µM
UO-31 renal
  TGI: > 97.2 µM
MOLT-4 leukemia
  TGI: > 100 µM
OVCAR-8 ovarian
  TGI: > 100 µM
NCI-H522 lung
  TGI: > 100 µM
M14 melanoma
  TGI: > 100 µM
NCI-H23 lung
  TGI: > 100 µM
SNB-78 CNS
  TGI: 82.8 µM
U251 CNS
  TGI: 46 µM
MCF7 breast
  TGI: > 100 µM
COLO 205 colon
  TGI: > 100 µM
NCI-H226 lung
  TGI: 97.9 µM
SF-268 CNS
  TGI: > 92.7 µM
SK-OV-3 ovarian
  TGI: 73.8 µM
786-0 renal
  TGI: 73.7 µM
K-562 leukemia
  TGI: > 100 µM
DMS 273 small cell lung
  TGI: > 100 µM
RPMI-8226 leukemia
  TGI: > 100 µM
OVCAR-4 ovarian
  TGI: > 97.7 µM
SK-MEL-2 melanoma
  TGI: 98.3 µM
SN12C renal
  TGI: > 100 µM
SNB-75 CNS
  TGI: 39.2 µM
CAKI-1 renal
  TGI: > 100 µM
KM12 colon
  TGI: > 100 µM
IGROV1 ovarian
  TGI: > 100 µM
MDA-MB-231 breast
  TGI: > 86.3 µM
HCC-2998 colon
  TGI: > 100 µM
MDA-N
  TGI: > 100 µM
LXFL 529 NSCLC
  TGI: > 100 µM
NCI/ADR-RES ovarian
  TGI: > 100 µM
CCRF-CEM leukemia
  TGI: > 100 µM
HL-60(TB) leukemia
  TGI: > 100 µM
UACC-257 melanoma
  TGI: > 100 µM
SK-MEL-5 melanoma
  TGI: > 100 µM
NCI-H460 lung
  TGI: > 100 µM
DMS 114 small cell lung
  TGI: > 100 µM
OVCAR-3 ovarian
  TGI: > 100 µM
LOX IMVI melanoma
  TGI: > 100 µM
ACHN renal
  TGI: 69.7 µM
RXF 393 renal
  TGI: 55.1 µM
SF-539 CNS
  TGI: 56.6 µM
TK-10 renal
  TGI: > 90.6 µM
UACC-62 melanoma
  TGI: > 95.7 µM
SNB-19 CNS
  TGI: 50.7 µM

## Cc1cc(=O)[nH]c(NN2C(Cl)C(=O)C2c2ccco2)n1 (centres undefined)
EKVX NSCLC
  TGI: > 100 µM
OVCAR-5 ovarian
  TGI: > 100 µM
HOP-92 NSCLC
  TGI: 69.8 µM
HT29 colon
  TGI: > 100 µM
M19-MEL melanoma
  TGI: > 100 µM
SR leukemia
  TGI: > 100 µM
HOP-18 NSCLC
  TGI: 58.8 µM
A549 NSCLC
  TGI: > 100 µM
HCT-15 colon
  TGI: > 100 µM
HCT-116 colon
  TGI: > 100 µM
HOP-62 NSCLC
  TGI: > 100 µM
SW-620 colon
  TGI: > 100 µM
KM20L2 colon
  TGI: > 100 µM
UO-31 renal
  TGI: > 100 µM
MOLT-4 leukemia
  TGI: > 100 µM
OVCAR-8 ovarian
  TGI: > 100 µM
M14 melanoma
  TGI: > 100 µM
NCI-H23 lung
  TGI: > 100 µM
SNB-78 CNS
  TGI: > 100 µM
U251 CNS
  TGI: > 100 µM
COLO 205 colon
  TGI: > 100 µM
SF-268 CNS
  TGI: > 100 µM
K-562 leukemia
  TGI: > 100 µM
DMS 273 small cell lung
  TGI: > 100 µM
RPMI-8226 leukemia
  TGI: 38.3 µM
OVCAR-4 ovarian
  TGI: > 100 µM
SK-MEL-2 melanoma
  TGI: 99.7 µM
SN12C renal
  TGI: 77 µM
SNB-75 CNS
  TGI: 68 µM
KM12 colon
  TGI: > 100 µM
IGROV1 ovarian
  TGI: > 100 µM
HCC-2998 colon
  TGI: > 100 µM
LXFL 529 NSCLC
  TGI: > 100 µM
CCRF-CEM leukemia
  TGI: 45.6 µM
HL-60(TB) leukemia
  TGI: 39.3 µM
UACC-257 melanoma
  TGI: > 100 µM
SK-MEL-5 melanoma
  TGI: > 100 µM
NCI-H460 lung
  TGI: > 100 µM
DMS 114 small cell lung
  TGI: > 100 µM
OVCAR-3 ovarian
  TGI: 79.4 µM
LOX IMVI melanoma
  TGI: > 100 µM
ACHN renal
  TGI: > 100 µM
RXF 393 renal
  TGI: > 100 µM
SF-539 CNS
  TGI: 85.9 µM
TK-10 renal
  TGI: > 100 µM
UACC-62 melanoma
  TGI: 63.6 µM
SNB-19 CNS
  TGI: > 100 µM
